Drawing on ChEMBL document CHEMBL5653615 (J Biol Chem, 2013), this text covers inhibition for 2 molecules.

The target in experiment [1] is T1, Serine/threonine-protein kinase 17A (Homo sapiens) (UniProt Q9UEE5).
T1 sequence (whole entry): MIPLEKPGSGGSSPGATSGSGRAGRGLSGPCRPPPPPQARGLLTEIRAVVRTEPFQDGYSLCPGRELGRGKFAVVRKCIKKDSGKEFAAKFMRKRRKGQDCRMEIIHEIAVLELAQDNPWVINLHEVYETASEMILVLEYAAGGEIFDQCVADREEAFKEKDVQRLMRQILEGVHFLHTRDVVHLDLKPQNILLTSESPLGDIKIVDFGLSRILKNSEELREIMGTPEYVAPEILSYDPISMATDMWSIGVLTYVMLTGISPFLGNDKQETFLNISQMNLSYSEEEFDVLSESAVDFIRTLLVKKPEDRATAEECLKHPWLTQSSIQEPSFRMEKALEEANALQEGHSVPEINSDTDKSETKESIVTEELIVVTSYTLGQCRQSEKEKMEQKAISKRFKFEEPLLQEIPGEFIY
Nature of the experiment: Inhibition of human DRAK1 at 18.6 nM by HotSpot assay relative to control.

Experiment [2] concerns the target SRSF protein kinase 3 (Homo sapiens) (UniProt Q9UPE1). The experiment can be described thus: Inhibition of human STK23 at 18.6 nM by HotSpot assay relative to control.
Experiment [3] deals with T2, Serine/threonine-protein kinase Nek11 (Homo sapiens) (UniProt Q8NG66).
T2 sequence (whole entry): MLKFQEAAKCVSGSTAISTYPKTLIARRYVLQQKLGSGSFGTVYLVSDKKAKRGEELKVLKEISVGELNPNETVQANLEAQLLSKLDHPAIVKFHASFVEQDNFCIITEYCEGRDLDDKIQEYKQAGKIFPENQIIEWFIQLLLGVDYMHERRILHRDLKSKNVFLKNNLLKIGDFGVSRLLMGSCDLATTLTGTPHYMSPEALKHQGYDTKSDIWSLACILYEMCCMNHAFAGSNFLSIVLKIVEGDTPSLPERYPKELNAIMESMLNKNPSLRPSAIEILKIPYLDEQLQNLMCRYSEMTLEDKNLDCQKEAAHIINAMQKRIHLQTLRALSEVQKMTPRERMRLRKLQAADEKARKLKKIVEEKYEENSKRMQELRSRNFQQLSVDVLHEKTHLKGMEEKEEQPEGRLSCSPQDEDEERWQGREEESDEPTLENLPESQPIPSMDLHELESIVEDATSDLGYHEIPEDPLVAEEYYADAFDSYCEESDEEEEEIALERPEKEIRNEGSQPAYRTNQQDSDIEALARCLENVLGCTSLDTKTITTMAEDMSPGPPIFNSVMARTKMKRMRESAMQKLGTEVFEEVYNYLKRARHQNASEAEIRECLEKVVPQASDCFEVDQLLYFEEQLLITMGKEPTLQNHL
The experiment can be described thus: Inhibition of human NEK11 at 18.6 nM by HotSpot assay relative to control.

Experiment [4] deals with Serine/threonine-protein kinase PAK 2 (Homo sapiens) (UniProt Q13177). The experiment can be described thus: Inhibition of human PAK2 at 18.6 nM by HotSpot assay relative to control.
Experiment [5] has as its target Serine/threonine-protein kinase PAK 4 (Homo sapiens) (UniProt O96013). Nature of the experiment: Inhibition of human PAK4 at 18.6 nM by HotSpot assay relative to control.
Experiment [6] concerns the target Ribosomal protein S6 kinase alpha-2 (Homo sapiens) (UniProt Q15349). Nature of the experiment: Inhibition of human RSK3 at 18.6 nM by HotSpot assay relative to control.
Experiment [7] concerns the target STE20-like serine/threonine-protein kinase (Homo sapiens) (UniProt Q9H2G2). Nature of the experiment: Inhibition of human STK2 at 18.6 nM by HotSpot assay relative to control.
The target in experiment [8] is TGF-beta receptor type-2 (Homo sapiens) (UniProt P37173). The experiment can be described thus: Inhibition of human TGFBR2 at 18.6 nM by HotSpot assay relative to control.
Experiment [9] has as its target T3, Activin receptor type-1 (Homo sapiens) (UniProt Q04771).
T3 sequence (whole entry): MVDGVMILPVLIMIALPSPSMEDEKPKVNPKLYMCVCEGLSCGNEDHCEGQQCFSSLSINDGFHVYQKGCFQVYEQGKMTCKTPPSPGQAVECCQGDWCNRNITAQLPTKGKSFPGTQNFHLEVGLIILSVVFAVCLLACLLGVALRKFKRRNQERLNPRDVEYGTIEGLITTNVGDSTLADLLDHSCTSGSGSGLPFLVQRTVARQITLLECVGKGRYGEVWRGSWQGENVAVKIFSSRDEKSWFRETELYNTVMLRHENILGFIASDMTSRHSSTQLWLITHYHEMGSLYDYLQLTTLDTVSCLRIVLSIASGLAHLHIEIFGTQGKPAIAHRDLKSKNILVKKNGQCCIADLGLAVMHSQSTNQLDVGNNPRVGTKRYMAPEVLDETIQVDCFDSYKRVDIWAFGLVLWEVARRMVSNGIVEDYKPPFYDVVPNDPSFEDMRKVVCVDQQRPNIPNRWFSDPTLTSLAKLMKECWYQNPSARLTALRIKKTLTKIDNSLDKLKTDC
The experiment can be described thus: Inhibition of human ALK2 at 1.82 nM by HotSpot assay relative to control.

The target in experiment [10] is Cyclin-dependent kinase 4/cyclin D1 (Homo sapiens) (UniProt P11802+P24385). Nature of the experiment: Inhibition of human CDK4/cyclin D1 at 1.82 nM by HotSpot assay relative to control. It counts as protein-complex assay.
Experiment [11] has as its target T4, Dual specificity tyrosine-phosphorylation-regulated kinase 4 (Homo sapiens) (UniProt Q9NR20).
T4 sequence (whole entry): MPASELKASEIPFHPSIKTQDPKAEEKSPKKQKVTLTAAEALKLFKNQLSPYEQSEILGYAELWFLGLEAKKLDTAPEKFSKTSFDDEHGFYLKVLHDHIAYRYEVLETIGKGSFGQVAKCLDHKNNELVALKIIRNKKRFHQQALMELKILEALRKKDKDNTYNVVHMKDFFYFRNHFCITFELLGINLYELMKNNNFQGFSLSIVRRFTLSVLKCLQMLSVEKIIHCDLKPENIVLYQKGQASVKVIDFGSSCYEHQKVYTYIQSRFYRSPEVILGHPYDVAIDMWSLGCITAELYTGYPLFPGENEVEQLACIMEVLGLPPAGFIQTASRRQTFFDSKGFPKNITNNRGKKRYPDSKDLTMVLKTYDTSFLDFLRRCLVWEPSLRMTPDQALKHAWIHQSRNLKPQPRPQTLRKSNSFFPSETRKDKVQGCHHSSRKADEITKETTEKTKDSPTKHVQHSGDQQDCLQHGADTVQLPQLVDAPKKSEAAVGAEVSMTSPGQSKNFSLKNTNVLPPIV
The experiment can be described thus: Inhibition of human DYRK4 at 1.82 nM by HotSpot assay relative to control.

Experiment [12] deals with Serine/threonine-protein kinase WNK2 (Homo sapiens) (UniProt Q9Y3S1). The experiment can be described thus: Inhibition of human WNK2 at 1.82 nM by HotSpot assay relative to control.
Serine/threonine-protein kinase WNK2 (Homo sapiens), sequence (Q9Y3S1 whole entry): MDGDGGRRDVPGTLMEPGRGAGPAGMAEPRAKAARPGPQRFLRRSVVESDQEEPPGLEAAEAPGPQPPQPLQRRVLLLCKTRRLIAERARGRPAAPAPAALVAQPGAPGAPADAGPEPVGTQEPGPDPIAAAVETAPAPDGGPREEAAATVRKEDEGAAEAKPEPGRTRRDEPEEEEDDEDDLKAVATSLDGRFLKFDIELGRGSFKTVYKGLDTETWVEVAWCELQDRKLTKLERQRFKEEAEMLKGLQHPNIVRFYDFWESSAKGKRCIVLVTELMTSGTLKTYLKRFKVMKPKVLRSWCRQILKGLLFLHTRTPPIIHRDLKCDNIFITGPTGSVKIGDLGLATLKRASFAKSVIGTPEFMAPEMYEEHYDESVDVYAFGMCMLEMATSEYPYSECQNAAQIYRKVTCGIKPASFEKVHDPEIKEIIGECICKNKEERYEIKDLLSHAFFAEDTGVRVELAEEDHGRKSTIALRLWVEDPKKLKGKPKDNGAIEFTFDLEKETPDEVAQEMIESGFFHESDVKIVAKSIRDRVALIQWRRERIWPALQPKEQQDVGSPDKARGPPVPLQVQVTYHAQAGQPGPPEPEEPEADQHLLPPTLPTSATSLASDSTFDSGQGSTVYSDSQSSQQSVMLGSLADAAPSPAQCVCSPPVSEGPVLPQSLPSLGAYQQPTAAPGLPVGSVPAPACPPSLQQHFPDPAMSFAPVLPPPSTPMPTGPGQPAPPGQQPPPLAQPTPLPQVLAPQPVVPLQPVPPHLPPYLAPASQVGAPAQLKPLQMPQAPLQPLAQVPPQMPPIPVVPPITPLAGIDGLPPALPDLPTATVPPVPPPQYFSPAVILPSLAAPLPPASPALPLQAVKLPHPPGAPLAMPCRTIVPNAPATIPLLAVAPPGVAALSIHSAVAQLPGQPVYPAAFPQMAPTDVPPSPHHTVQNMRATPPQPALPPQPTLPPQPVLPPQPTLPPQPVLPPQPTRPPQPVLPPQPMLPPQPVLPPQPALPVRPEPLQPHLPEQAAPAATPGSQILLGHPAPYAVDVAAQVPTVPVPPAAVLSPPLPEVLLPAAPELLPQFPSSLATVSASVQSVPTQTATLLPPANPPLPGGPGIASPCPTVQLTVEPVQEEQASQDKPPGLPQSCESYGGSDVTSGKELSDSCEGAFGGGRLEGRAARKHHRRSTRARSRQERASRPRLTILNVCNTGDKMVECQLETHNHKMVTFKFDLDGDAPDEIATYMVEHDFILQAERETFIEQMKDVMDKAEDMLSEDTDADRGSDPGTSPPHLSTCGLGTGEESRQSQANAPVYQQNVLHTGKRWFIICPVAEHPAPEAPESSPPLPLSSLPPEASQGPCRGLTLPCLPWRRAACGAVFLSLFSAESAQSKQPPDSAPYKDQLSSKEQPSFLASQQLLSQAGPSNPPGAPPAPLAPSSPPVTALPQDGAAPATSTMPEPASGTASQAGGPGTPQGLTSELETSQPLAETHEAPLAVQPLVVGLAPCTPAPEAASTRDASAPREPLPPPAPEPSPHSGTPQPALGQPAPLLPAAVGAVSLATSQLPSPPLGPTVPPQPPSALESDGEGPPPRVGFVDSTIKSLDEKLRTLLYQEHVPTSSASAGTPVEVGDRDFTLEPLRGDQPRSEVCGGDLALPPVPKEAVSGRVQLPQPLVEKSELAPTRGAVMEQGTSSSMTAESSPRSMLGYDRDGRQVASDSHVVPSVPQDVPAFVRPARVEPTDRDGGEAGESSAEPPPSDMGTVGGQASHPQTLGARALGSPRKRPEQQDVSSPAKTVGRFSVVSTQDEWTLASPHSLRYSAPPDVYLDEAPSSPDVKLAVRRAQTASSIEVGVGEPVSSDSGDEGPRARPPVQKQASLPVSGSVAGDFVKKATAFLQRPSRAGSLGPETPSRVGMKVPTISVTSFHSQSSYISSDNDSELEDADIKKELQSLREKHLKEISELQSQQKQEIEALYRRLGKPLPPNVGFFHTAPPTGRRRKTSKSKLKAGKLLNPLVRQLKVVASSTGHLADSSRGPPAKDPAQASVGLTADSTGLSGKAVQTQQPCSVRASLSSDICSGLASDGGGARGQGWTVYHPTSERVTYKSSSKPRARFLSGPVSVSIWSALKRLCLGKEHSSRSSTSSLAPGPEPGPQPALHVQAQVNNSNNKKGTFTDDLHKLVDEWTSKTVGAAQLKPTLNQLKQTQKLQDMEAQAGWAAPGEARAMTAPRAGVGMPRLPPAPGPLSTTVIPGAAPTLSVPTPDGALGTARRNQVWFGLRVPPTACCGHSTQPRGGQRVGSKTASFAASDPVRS

Ribosomal protein S6 kinase alpha-2 (Homo sapiens), sequence (Q15349 whole entry): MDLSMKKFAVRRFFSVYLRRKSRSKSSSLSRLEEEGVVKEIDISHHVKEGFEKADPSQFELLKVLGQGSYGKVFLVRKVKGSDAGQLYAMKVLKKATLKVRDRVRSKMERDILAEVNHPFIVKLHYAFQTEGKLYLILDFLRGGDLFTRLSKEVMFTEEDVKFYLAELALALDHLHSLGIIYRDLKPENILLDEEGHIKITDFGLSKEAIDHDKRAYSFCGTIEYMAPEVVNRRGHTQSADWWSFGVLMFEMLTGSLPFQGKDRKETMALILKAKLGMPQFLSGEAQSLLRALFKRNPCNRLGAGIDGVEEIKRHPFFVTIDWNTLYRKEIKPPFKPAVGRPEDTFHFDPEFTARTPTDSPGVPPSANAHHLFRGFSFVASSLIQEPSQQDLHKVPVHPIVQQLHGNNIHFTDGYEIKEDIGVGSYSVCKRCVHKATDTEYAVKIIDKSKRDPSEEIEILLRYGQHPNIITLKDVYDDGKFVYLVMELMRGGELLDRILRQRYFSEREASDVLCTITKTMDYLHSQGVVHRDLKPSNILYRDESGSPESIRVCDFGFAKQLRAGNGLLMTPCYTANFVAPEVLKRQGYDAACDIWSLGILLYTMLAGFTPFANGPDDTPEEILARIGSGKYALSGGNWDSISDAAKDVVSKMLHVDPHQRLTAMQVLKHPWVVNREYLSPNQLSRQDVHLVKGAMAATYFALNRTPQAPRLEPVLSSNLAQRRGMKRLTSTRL
STE20-like serine/threonine-protein kinase (Homo sapiens), sequence (Q9H2G2 whole entry, looked up): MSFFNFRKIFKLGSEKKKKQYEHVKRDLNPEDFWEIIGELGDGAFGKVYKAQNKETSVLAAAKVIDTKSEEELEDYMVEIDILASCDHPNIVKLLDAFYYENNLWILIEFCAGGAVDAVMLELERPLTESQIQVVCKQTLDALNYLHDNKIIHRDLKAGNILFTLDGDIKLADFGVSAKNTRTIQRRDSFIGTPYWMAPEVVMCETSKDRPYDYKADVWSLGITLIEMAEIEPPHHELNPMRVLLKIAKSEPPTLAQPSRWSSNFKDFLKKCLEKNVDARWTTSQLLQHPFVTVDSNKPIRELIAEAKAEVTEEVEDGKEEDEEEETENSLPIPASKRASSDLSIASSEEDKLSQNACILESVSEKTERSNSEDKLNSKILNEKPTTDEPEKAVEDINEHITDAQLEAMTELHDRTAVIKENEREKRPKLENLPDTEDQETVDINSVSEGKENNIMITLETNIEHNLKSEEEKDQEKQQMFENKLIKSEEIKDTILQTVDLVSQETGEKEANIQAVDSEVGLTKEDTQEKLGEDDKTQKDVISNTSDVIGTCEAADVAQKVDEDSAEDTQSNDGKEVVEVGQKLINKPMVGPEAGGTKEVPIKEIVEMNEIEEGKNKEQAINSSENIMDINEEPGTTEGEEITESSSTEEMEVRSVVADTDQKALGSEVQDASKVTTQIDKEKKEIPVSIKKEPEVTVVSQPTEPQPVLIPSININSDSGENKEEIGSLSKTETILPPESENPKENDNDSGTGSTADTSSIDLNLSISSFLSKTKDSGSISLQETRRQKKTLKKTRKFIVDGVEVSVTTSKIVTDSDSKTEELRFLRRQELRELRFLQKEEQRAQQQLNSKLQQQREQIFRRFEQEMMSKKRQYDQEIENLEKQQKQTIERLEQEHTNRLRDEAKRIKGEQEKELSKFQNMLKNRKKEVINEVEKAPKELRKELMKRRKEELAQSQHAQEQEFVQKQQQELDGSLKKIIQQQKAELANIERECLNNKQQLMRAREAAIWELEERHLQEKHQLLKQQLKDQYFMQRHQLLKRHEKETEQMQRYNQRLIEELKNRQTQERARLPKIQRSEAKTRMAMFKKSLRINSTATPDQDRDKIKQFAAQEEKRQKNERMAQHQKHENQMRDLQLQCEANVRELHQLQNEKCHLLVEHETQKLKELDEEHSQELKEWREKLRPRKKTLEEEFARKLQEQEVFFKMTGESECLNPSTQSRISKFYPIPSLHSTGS
SRSF protein kinase 3 (Homo sapiens), sequence (Q9UPE1 whole entry): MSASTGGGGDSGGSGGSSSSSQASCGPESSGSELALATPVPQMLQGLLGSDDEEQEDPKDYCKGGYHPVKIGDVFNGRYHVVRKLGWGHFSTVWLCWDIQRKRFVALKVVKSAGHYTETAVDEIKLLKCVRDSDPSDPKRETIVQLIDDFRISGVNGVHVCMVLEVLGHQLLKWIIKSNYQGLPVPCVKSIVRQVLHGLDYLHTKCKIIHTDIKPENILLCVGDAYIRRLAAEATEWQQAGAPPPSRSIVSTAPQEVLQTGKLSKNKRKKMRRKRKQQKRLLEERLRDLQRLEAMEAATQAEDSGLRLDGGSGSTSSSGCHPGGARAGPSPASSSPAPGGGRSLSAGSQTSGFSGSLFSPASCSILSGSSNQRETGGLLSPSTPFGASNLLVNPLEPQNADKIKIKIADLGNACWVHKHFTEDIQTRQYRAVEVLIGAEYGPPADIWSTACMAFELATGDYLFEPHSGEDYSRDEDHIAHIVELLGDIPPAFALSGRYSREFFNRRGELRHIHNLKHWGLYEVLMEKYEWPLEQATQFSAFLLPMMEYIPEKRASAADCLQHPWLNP

Turning to `C[C@]1(O)C[C@@H](c2nc(-c3ccc4ccc(-c5ccccc5)nc4c3)c3c(N)nccn32)C1`, the inhibition (usually the relative decrease from the control value, in per cent) is 0.05% in [1]; -2.07% in experiment [2]; 10.2% in experiment [3]; -7.87% in experiment [4]; -5.78% in experiment [5]; -2.23% in experiment [6]. For the same molecule, the inhibition in experiment [7] came to 9.03%; in experiment [8] it was 8.98%.

As to `C[C@@]1(C(=O)Nc2ccc(F)nc2)CCCN1c1nc(Nc2cc(C3CC3)n[nH]2)c2cccn2n1`, the inhibition in [9] is 5.9%; in experiment [10] it was -5.89%; in experiment [11], -0.4%; in experiment [12] it was -1.14%.
